In US10590140B2, “Tetrahydropyrimidodiazepine and dihydropyridodiazepine compounds for treating pain and pain related conditions” (ESTEVE PHARMACEUTICALS, S.A., priority 2016, dated 2020):

The compounds below were run against human α2δ-1 subunit of Cav2.2 calcium channel (Homo sapiens (Human), UniProt P54289) (assay: Binding assay to human α2δ-1 subunit of Cav2.2 calcium channel ([3H]-Gabapentin)). Conditions: binding to α2δ-1, [3H]-Gabapentin; read-out: Ki (nM) α2δ-1.
Outline: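 Radioactivity on dried GF/C filters quantified by scintillation after filtration and three cold Tris-HCl (pH 7.4) washes. Incubation ran 60 min at 27° C with [3H]-gabapentin; 10 μM pregabalin gave nonspecific binding.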

human α2δ-1 subunit of Cav2.2 calcium channel, sequence (P54289 25-1103): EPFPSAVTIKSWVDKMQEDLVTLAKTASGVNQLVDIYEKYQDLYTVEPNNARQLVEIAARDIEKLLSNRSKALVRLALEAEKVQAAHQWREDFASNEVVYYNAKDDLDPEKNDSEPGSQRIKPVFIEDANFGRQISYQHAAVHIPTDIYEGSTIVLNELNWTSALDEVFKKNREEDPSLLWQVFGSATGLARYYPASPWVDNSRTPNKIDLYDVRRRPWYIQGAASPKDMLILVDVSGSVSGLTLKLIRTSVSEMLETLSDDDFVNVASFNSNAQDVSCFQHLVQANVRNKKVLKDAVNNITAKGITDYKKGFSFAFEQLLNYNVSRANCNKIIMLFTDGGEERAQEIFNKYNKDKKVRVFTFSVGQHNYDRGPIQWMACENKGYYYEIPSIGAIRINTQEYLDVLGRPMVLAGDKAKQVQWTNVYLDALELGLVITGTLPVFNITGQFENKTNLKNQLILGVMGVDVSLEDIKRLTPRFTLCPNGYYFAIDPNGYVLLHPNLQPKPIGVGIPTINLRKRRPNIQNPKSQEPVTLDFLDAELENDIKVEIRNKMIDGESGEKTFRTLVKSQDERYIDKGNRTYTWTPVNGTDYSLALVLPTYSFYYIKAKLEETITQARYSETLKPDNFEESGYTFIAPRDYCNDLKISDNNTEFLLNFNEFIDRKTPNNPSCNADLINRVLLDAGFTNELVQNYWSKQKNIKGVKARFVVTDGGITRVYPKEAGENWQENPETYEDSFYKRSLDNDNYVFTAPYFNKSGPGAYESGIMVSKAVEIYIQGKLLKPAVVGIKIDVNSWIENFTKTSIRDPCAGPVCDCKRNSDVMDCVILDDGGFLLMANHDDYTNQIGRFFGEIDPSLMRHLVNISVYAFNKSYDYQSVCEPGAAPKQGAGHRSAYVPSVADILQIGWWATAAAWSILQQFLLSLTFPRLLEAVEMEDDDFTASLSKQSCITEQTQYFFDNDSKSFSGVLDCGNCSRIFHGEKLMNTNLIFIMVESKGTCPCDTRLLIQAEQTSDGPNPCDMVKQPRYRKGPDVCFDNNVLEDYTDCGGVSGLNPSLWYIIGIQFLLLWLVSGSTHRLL

Q: For `CSc1ncc2c(n1)N(C)CCN(c1cccc(COC(CCN(C)C(=O)OC(C)(C)C)c3ccccc3)c1)C2=O` (stereo not drawn) [Example 9, tert-butyl methyl(3-((3-(9-methyl-2-(methylthio)-5-oxo-5,7,8,9-tetrahydro-6H-pyrimido[4,5-e][1,4]diazepin-6-yl)benzyl)oxy)-3-phenylpropyl) carbamate], which Ki is on record?
A: The Ki was over 3000 nM.

Q: For `CCNc1ncc2c(n1)N(C)CCN(c1cccc(OCCN(C)C(=O)OC(C)(C)C)c1)C2=O` [Example 90, tert-butyl (2-(3-(2-(ethylamino)-9-methyl-5-oxo-5,7,8,9-tetrahydro-6H-pyrimido[4,5-e][1,4]diazepin-6-yl)phenoxy)ethyl) (methyl)carbamate], which Ki is on record?
A: Its Ki is over 3000 nM.

Q: For `CCNCc1cn(-c2cccc(N3CCN(C)c4nc(NCC)ncc4C3=O)c2)nn1` [Example 286, 2-(ethylamino)-6-(3-(4-((ethylamino)methyl)-1H-1,2,3-triazol-1-yl)phenyl)-9-methyl-6,7,8,9-tetrahydro-5H-pyrimido[4,5-e] [1,4]diazepin-5-one], which Ki is on record?
A: Its Ki is 100 to 500 nM.

Q: Which Ki does the source give for `CCNc1ncc2c(n1)N(C)CCN(Cc1cccc(OC)c1)C2` [Example 67, N-ethyl-6-(3-methoxybenzyl)-9-methyl-6,7,8,9-tetrahydro-5H-pyrimido[4,5-e][1,4]diazepin-2-amine] here?
A: Its Ki is over 3000 nM.

Q: For `CNCC(Oc1ccccc1CN1CCN(C)c2ncncc2C1=O)c1ccccc1` (stereo not drawn) [Example 432, 9-methyl-6-(2-(2-(methylamino)-1-phenylethoxy)benzyl)-6,7,8,9-tetrahydro-5H-pyrimido[4,5-e][1,4]diazepin-5-one], which Ki is on record?
A: Its Ki is over 3000 nM.

Q: With `CCNc1ncc2c(n1)N(C)CCN(c1cccc(CCN3CCC(c4ccccc4)(N(C)C)CC3)c1)C2=O` [Example 438, 6-(3-(2-(4-(dimethylamino)-4-phenylpiperidin-1-yl)ethyl)phenyl)-2-(ethylamino)-9-methyl-6,7,8,9-tetrahydro-5H-pyrimido[4,5-e][1,4]diazepin-5-one] as the compound, how does the Ki read?
A: The Ki was 500 to 3000 nM.

Q: With `CNCC[C@H](Oc1ccc(CN2CCN(C)c3ccncc3C2=O)cc1)c1ccccc1` [Example 377, (S)-1-methyl-4-(4-(3-(methylamino)-1-phenylpropoxy)benzyl)-1,2,3,4-tetrahydro-5H-pyrido[4,3-e][1,4]diazepin-5-one] as the compound, how does the Ki read?
A: The Ki was 500 to 3000 nM.

Q: How did the Ki turn out when `CCNc1ncc2c(n1)N(C)CCN(c1cccc(OC(CCNCCF)c3cccs3)c1)C2=O` (stereo not drawn) [Example 220, 2-(ethylamino)-6-(3-(3-((2-fluoroethyl)amino)-1-(thiophen-2-yl)propoxy)phenyl)-9-methyl-6,7,8,9-tetrahydro-5H-pyrimido[4,5-e][1,4]diazepin-5-one] was run?
A: The Ki was 500 to 3000 nM.

Q: For `CSc1ncc2c(n1)N(C)CCN(c1cccc(-n3cnc(CN(C)C(=O)OC(C)(C)C)c3)c1)C2=O` [Example 46, tert-butyl methyl((1-(3-(9-methyl-2-(methylthio)-5-oxo-5,7,8,9-tetrahydro-6H-pyrimido[4,5-e][1,4]diazepin-6-yl)phenyl)-1H-imidazol-4-yl)methyl) carbamate], which Ki is on record?
A: The Ki was over 3000 nM.

Q: `CCNc1ncc2c(n1)N(C)CCN(c1cccc(OC(CNC(=O)OC(C)(C)C)c3ccccc3)c1)C2=O` (stereo not drawn) [Example 73, tert-butyl (2-(3-(2-(ethylamino)-9-methyl-5-oxo-5,7,8,9-tetrahydro-6H-pyrimido[4,5-e][1,4]diazepin-6-yl)phenoxy)-2-phenylethyl)carbamate] was tested. Which Ki did it give?
A: Its Ki is over 3000 nM.

Q: How did the Ki turn out when `CCNc1ncc2c(n1)N(C)CCN(c1cccc(CCN(C)C(=O)OC(C)(C)C)c1)C2=O` [Example 92, tert-butyl (3-(2-(ethylamino)-9-methyl-5-oxo-5,7,8,9-tetrahydro-6H-pyrimido[4,5-e][1,4]diazepin-6-yl)phenethyl)(methyl) carbamate] was run?
A: Its Ki is over 3000 nM.

Q: `CCNc1ncc2c(n1)N(C)CCN(c1cccc(OCCN3CCCCC3)c1)C2=O` [Example 439, 2-(ethylamino)-9-methyl-6-(3-(2-(piperidin-1-yl)ethoxy)phenyl)-6,7,8,9-tetrahydro-5H-pyrimido[4,5-e][1,4]diazepin-5-one] was tested. Which Ki did it give?
A: Its Ki is 500 to 3000 nM.
